Common to all, as to type: cell-based
Data set [1] is described as follows: Cytotoxicity in mock-infected HeLa cells (tetrazolium-based colorimetric assay). The conditions noted are these: human. From the text: (§1) The percent protection against cytopathology caused by viruses (antiviral activity or IC50) achieved by tested compounds and their cytotoxicity (CC50) were both calculated from dose-response curves. The selectivity of the antiviral effect is represented by the selectivity index (SI), calculated by dividing the CC50 (cytotoxic dose for 50% of the cells) by the IC50 (antiviral activity for 50% of the cells).
(§2) Automated tetrazolium-based colorimetric assays were used for determination of IC50 and CC50 of test compounds. Flat-bottom, 96-well plastic microtiter trays were filled with 180 μl of Eagle's Basal Medium, supplemented with 5% FCS (0% for FLU) and mM Hepes buffer. Subsequently, stock solutions (7.8× final test concentration) of compounds were added in 45 μl volumes to a series of triplicate wells so as to allow simultaneous evaluation of their effects on virus- and mock-infected cells. Five five-fold dilutions were made directly in the microtiter trays using a robot system. Untreated virus controls, and HeLa cell controls were included in each test. Approximately 100 TCID50 of Respiratory Syncytial Virus was added to two of the three rows in a volume of 50 μl. The same volume of medium was added to the third row to measure the cytotoxicity of the compounds at the same concentrations as those used to measure the antiviral activity. After two hours of incubation, a suspension (4×10^5 cells/ml) of HeLa cells was added to all wells in a volume of 50 μl. The cultures were incubated at 37° C. in a 5% CO2 atmosphere. Seven days after infection the cytotoxicity and the antiviral activity was examined spectrophotometrically. To each well of the microtiter tray, 25 μl of a solution of MTT (3-(4,5-dimethylthiazol-2-yl)-2,5-diphenyltetrazolium bromide) was added. The trays were further incubated at 37° C. for 2 hours, after which the medium was removed from each cup. Solubilization of the formazan crystals was achieved by adding 100 μl 2-propanol. Complete dissolution of the formazan crystals were obtained after the trays have been placed on a plate shaker for 10 min. Finally, the absorbances were read in an eight-channel computer-controlled photometer (Multiskan MCC, Flow Laboratories) at two wavelengths (540 and 690 nm). The absorbance measured at 690 nm was automatically subtracted from the absorbance at 540 nm, so as to eliminate the effects of non-specific absorption.

In data set [2] the test system is Respiratory Syncytial Virus. Briefly: In vitro screening for activity against Respiratory Syncytial Virus (tetrazolium-based colorimetric assay, protection against cytopathology in HeLa cells). The conditions noted are these: for SI (selectivity index, CC50 divided by IC50): CC50 (HeLa) / IC50 (RSV); for IC50: read-out: IC50 (antiviral activity).
Excerpt: as §1, §2

A further data set has as its system HeLa cells. Briefly: Cytotoxicity in mock-infected HeLa cells (tetrazolium-based colorimetric assay). Conditions: human, 7 days.
Excerpt: as §1, §2

Where [3] appears, read: CC50 (cytotoxic dose for 50% of the cells).
Where [4] appears, read: mock-infected HeLa cells, MTT, seven days, read-out: CC50 (cytotoxic dose for 50% of the cells).
Setting [5] is: human respiratory syncytial virus, HeLa, 168 h.

Where two headings read alike, the source gives them in different places.

As to `CCOC(c1cccc(Br)n1)n1c(NC2CCN(CC(N)C(C)C)CC2)nc2ccccc21` (racemic) [Compound 10, (±)-N-[1-(2-amino-3-methylbutyl)-4-piperidinyl]-1-[(6-bromo-2-pyridinyl)-ethoxymethyl]-1H-benzimidazol-2-amine], the CC50 (in general, the concentration giving 50% cytotoxicity) at 7 days in data set [1] (setting [3]) is 37900 nM. Also, in data set [2], the “SI (selectivity index, CC50 divided by IC50)” value is on record as 63096. Moreover, the IC50 – broadly, the concentration that gives 50% inhibition – in data set [2] (human respiratory syncytial virus, HeLa, 168 h, RSV approx. 100 TCID50, HeLa cells, MTT read seven days after infection) turned out to be 0.6 nM.
In the case of `CCOC(c1nc(C)ccc1OCc1ccccc1)n1c(NC2CCN(CCN)CC2)nc2ccccc21.Cl.Cl.Cl.O.O` (racemic) [Compound 11, (±)-N-[1-(2-aminoethyl)-4-piperidinyl]-1-[ethoxy[6-methyl-3-(phenylmethoxy)-2-pyridinyl]-methyl]-1H-benzimidazol-2-amine trihydrochloride dihydrate], the CC50 at 7 days in data set [1] (setting [4]) amounted to 9950 nM. Also, the “SI (selectivity index, CC50 divided by IC50)” value in data set [2] amounted to 79. For the same compound, the IC50 in data set [2] (setting [5]) was 126 nM.
With `Cc1cccc(C(OCCO)n2c(NC3CCN(CCN)CC3)nc3ccccc32)n1` (racemic) [Compound 13, monohydrate], the half-maximal cytotoxic concentration (CC50) at 7 days in data set [1] (setting [4]) is over 100000 nM. Besides, the “SI (selectivity index, CC50 divided by IC50)” value in data set [2] is reported as over 7943. Further, the concentration for half-maximal inhibition (IC50) in data set [2] (setting [5]) amounted to 12.6 nM.
As for `CCOC(c1cccc(Br)n1)n1c(NC2CCN(CC(N)C(C)C)CC2)nc2c(C)cccc21` (racemic) [Compound 87, monohydrate], in data set [1] (setting [4]), the half-maximal cytotoxic concentration (CC50) at 7 days came to 10100 nM. Further, in data set [2], the “SI (selectivity index, CC50 divided by IC50)” value turned out to be 31623. The IC50 in data set [2] (setting [5]) was 0.32 nM.
As for `CCOC(c1cccc(C)n1)n1c(NC2CCN(CC(N)C(C)C)CC2)nc2ccccc21` (stereo not drawn) [Compound 58], the CC50 with HeLa cells is 79400 nM. The “SI (selectivity index, CC50 divided by IC50)” value in data set [2] is on record as 1585. Moreover, the IC50 in data set [2] (RSV approx. 100 TCID50, HeLa cells, MTT read seven days after infection) was 50.1 nM.
For the compound `CCOC(c1cccc(C)n1)n1c(NC2CCN(CC(N)C(C)C)CC2)nc2ccccc21` [Compound 67, [(A)(S)]-N-[1-(2-amino-3-methylbutyl)-4-piperidinyl]-1-[ethoxy(6-methyl-2-pyridinyl)methyl]-1H-benzimidazol-2-amine monohydrate], in data set [1] (setting [3]), the CC50 at 7 days came out at 63400 nM. The “SI (selectivity index, CC50 divided by IC50)” value in data set [2] (monohydrate) turned out to be 15849. Also, in data set [2] (RSV approx. 100 TCID50, HeLa cells, MTT read seven days after infection, monohydrate), the IC50 came out at 4 nM.
Consider `COCCOC(c1cccc(C)n1)n1c(NC2CCN(CC(N)C(C)C)CC2)nc2c(C)cc(Cl)cc21.Cl.Cl.Cl.O.O.O` (stereo not drawn) [Compound 88, N-[1-(2-amino-3-methylbutyl)-4-piperidinyl]-6-chloro-1-[(2-methoxyethoxy)(6-methyl-2-pyridinyl)methyl]-4-methyl-1H-benzimidazol-2-amine trihydrochloride trihydrate], for which the CC50 at 7 days in data set [1] (setting [4]) is 20000 nM. Also, the “SI (selectivity index, CC50 divided by IC50)” value in data set [2] is listed as 10000. The IC50 in data set [2] (setting [5]) amounted to 2 nM.

The values above are taken from patent US7528149B2 (Janssen Pharmaceutica N.V., priority 1999, dated 2009).
